A word on the IC50: it is the concentration that gives 50% inhibition.

The test system of the first assay is IL-2 production. Briefly: Inhibition of IL-2 production in PHA-activated Jurkat cells (ELISA). It is filed as cell-based. Particulars: Homo sapiens, Jurkat, 20 h, PHA 2.5 μg/mL, IL-2 ELISA. Here is the method:
Jurkat cells were placed in a 96 well plate (0.5 million cells per well in 1% FBS medium) then a test compound of this invention was added at different concentrations. After 10 minutes, the cells were activated with PHA (final concentration 2.5 μg/mL) and incubated for 20 hours at 37° C. under CO2. The final volume was 200 μL. Following incubation, the cells were centrifuged and the supernatants collected and stored at −70° C. prior to assaying for IL-2 production. A commercial ELISA kit (IL-2 Eli-pair, Diaclone Research, Besancon, France) was used to detect production of IL-2, from which dose response curves were obtained. The IC50 value was calculated as the concentration at which 50% of maximum IL-2 production after stimulation was inhibited versus a non-stimulation control.
`CC1=C(c2ccc(NC(=O)c3ccncc3F)cc2)CCCC1` [Compound 1, 3-Fluoro-N-[4-(2-methyl-cyclohex-1-enyl)-phenyl]-isonicotinamide] displayed an IC50 of 84 nM.
Still for that read-out and setting: then `C=C(C)[C@@H]1CCC(C)=C(c2ccc(NC(=O)c3ccncc3C)cc2)C1` [Compound 2, 3-Methyl-N-[4-(2-methyl-5(R)-isopropenyl-cyclohex-1-enyl)-phenyl]-isonicotinamide], with 11 nM; and `C=C(C)[C@H]1CCC(C)=C(c2ccc(NC(=O)c3ccncc3C)cc2)C1` [Compound 3, 3-Methyl-N-[4-(2-methyl-5(S)-isopropenyl-cyclohex-1-enyl)-phenyl]-isonicotinamide], with 9 nM.
Same read-out and setting: then `C=C(C)[C@@H]1CCC(C)=C(c2ccc(NC(=O)c3ccncc3F)cc2)C1` [Compound 4, 3-Fluoro-N-[4-(2-methyl-5(R)-isopropenyl-cyclohex-1-enyl)-phenyl]-isonicotinamide], with 7 nM; and `C=C(C)[C@H]1CCC(C)=C(c2ccc(NC(=O)c3ccncc3F)nc2)C1` [Compound 5], with 13.9 nM; and `CC(=O)[C@@H]1CCC(C)=C(c2ccc(NC(=O)c3ccncc3C)cc2)C1` [Compound 6, 3-Methyl-N-[4-(2-methyl-5(R)-acetyl-cyclohex-1-enyl)-phenyl]-isonicotinamide], with 68 nM.
Same read-out and setting: then `CCOC(=O)N1C=C(c2ccc(NC(=O)c3c(F)cccc3F)cc2)C(C)CC1` (stereo not shown) [Compound 8, 5-[4-(2,6-difluoro-benzoylamino)-phenyl]-4-methyl-2,4-dihydro-2H-pyridine-1-carboxylic acid ethyl ester], with 95 nM; and `CC1=C(c2ccc(NC(=O)c3ccncc3C)cc2)C[C@@H]([C@@](C)(O)CO)CC1` [Compound 9, N-(4-((S)-5-((R)-1,2-dihydroxypropan-2-yl)-2-methylcyclohex-1-enyl)phenyl)-3-methylisonicotinamide], with 748 nM; and `CC1=C(c2ccc(NC(=O)c3c(F)cccc3F)cc2)CN(C)CC1` [Compound 10, N-(4-(1,4-dimethyl-1,2,5,6-tetrahydropyridin-3-yl)phenyl)-2,6-difluorobenzamide], with more than 1000 nM.
The molecule `CC1=C(c2ccc(NC(=O)c3c(F)cccc3F)cc2)CN(Cc2ccccc2)CC1` [Compound 11, N-(4-(1-benzyl-4-methyl-1,2,5,6-tetrahydropyridin-3-yl)phenyl)-2,6-difluorobenzamide] returned an IC50 of more than 1000 nM.
In turn, `CCOC(=O)N1CCC(C)=C(c2ccc(NC(=O)c3c(F)cccc3F)cc2)C1` [Compound 12, Ethyl 3-(4-(2,6-difluorobenzamido)phenyl)-4-methyl-5,6-dihydropyridine-1(2H)-carboxylate] yielded an IC50 of 23 nM.
Still for that read-out and setting: then `CC(C)=C(C)c1ccc(NC(=O)c2ccncc2F)cc1` [Compound 13, 3-Fluoro-N-(4-(3-methylbut-2-en-2-yl)phenyl)-isonicotinamide], with 382 nM.
In turn, `CC(C)=C(c1ccccc1)c1ccc(NC(=O)c2ccncc2C)cc1` [Compound 14, 3-Methyl-N-(4-(2-methyl-1-phenylprop-1-enyl)phenyl)-isonicotinamide] came in with an IC50 of 159 nM.
`CCOC(=O)N1CCC(c2ccc(NC(=O)c3c(F)cccc3F)cc2)=C(C)C1` [Compound 16, Ethyl 4-(4-(2,6-difluorobenzamido)phenyl)-3-methyl-5,6-dihydropyridine-1(2H)-carboxylate] showed an IC50 of 24.6 nM.
Turning to `O=C(Nc1ccc(C2=CCCCC2)cc1)c1ccncc1F` [Compound 18, N-(4-Cyclohexenylphenyl)-3-fluoroisonicotinamide], the IC50 was more than 1000 nM.
Molecule `O=C(Nc1ccc(C2=C(Cl)CCCC2)cc1)c1c(F)cccc1F` [Compound 21, N-[4-(2-chloro-cyclohex-1-enyl)-phenyl]-2,6-difluoro-benzamide] came in with an IC50 of 23.2 nM.
For `O=C(Nc1ccc(C2=C(CO)CCCC2)cc1)c1c(F)cccc1F` [Compound 22, N-[4-(2-hydroxymethyl-cyclohex-1-enyl)-phenyl]-2,6-difluoro-benzamide], the concentration for half-maximal inhibition (IC50) stood at 721 nM.
`O=C(Nc1ccc(C2=C(c3cnco3)CCCC2)cc1)c1c(F)cccc1F` [Compound 23, N-[4-(2-oxazol-5-yl-cyclohex-1-enyl)-phenyl]-2,6-difluoro-benzamide] showed an IC50 of 7.4 nM.
Still for that read-out and setting: then `O=C(Nc1ccc(C2=C(c3cnco3)CCCC2)cc1)c1ccncc1F` [Compound 24, N-[4-(2-oxazol-5-yl-cyclohexen-1-yl)-phenyl]-3-fluoroisonicotinamide], with 68 nM; and `CC1=C(c2ccc(NC(=O)c3c(F)cccc3F)cc2)CCCC1` [Compound 25, N-[4-(2-methyl-cyclohex-1-enyl)-phenyl]-2,6-difluoro-benzamide], with 7.2 nM; and `CC1=C(c2ccc(NC(=O)c3ncncc3C)cc2)CCCC1` [Compound 26, 5-Methyl-pyrimidine-4-carboxylic acid [4-(2-methyl-cyclohex-1-enyl)-phenyl]-amide], with 165 nM.
On the same count and under the same terms, the value for `CC1=C(c2ccc(NC(=O)c3cncnc3C)cc2)CCCC1` [Compound 27, 4-Methyl-pyrimidine-5-carboxylic acid [4-(2-methyl-cyclohex-1-enyl)-phenyl]-amide] was 38.9 nM; that for `CC1=C(c2ccc(NC(=O)c3scnc3Cl)cc2)CCCC1` [Compound 28, 4-Chloro-thiazole-5-carboxylic acid [4-(2-methyl-cyclohex-1-enyl)-phenyl]-amide] was 143 nM; that for `CCC1=C(c2ccc(NC(=O)c3c(F)cccc3F)cc2)CCCC1` [Compound 29, N-[4-(2-ethyl-cyclohex-1-enyl)-phenyl]-2,6-difluoro-benzamide] was 17.4 nM.
Take `CCOC(=O)C1=C(c2ccc(NC(=O)c3c(F)cccc3F)cc2)CCC1` [Compound 30, 2-[4-(2,6-Difluoro-benzoylamino)phenyl]-cyclopent-1-enecarboxylic acid ethyl ester]: the IC50 amounted to 300 nM.
On the same count and under the same terms, then `O=C(Nc1ccc(C2=C(CO)CCC2)cc1)c1c(F)cccc1F` [Compound 31, 2,6-Difluoro-N-[4-(2-hydroxymethyl-cyclopent-1-enyl)-phenyl]-benzamide], with more than 1000 nM; and `O=CC1=C(c2ccc(NC(=O)c3c(F)cccc3F)cc2)CCC1` [Compound 32, 2,6-Difluoro-N-[4-(2-formyl-cyclopent-1-enyl)-phenyl]-benzamide], with more than 1000 nM.
Take `C=CC1=C(c2ccc(NC(=O)c3c(F)cccc3F)cc2)CCC1` [Compound 33, 2,6-Difluoro-N-[4-(2-vinyl-cyclopent-1-enyl)-phenyl]-benzamide]: the IC50 turned out to be 97.1 nM.
On to `O=C(Nc1ccc(C2=C(c3cnco3)CCC2)cc1)c1c(F)cccc1F` [Compound 34, 2,6-Difluoro-N-[4-(2-oxazol-5-yl-cyclopent-1-enyl)-phenyl]-benzamide], for which the IC50 was found to be 20.5 nM.
Still for that read-out and setting: then `COC(=O)C1=C(c2ccc(NC(=O)c3c(F)cccc3F)cc2)CCCCC1` [Compound 35, 2,6-Difluoro-N-[4-(2-methoxycarbonyl-cyclohept-1-enyl)-phenyl]-benzamide], with 104 nM; and `O=C(Nc1ccc(C2=C(CO)CCCCC2)cc1)c1c(F)cccc1F` [Compound 36, 2,6-Difluoro-N-[4-(2-hydroxymethyl-cyclohept-1-enyl)-phenyl]-benzamide], with more than 1000 nM.
Take `O=CC1=C(c2ccc(NC(=O)c3c(F)cccc3F)cc2)CCCCC1` [Compound 37, 2,6-Difluoro-N-[4-(2-formyl-cyclohept-1-enyl)-phenyl]-benzamide]: the IC50 came out at 774 nM.
Molecule `O=C(Nc1ccc(C2=C(c3cnco3)CCCCC2)cc1)c1c(F)cccc1F` [Compound 38] returned an IC50 of 23.1 nM.
On the same count and under the same terms, the value for `CCOC(=O)C1=C(c2ccc(NC(=O)c3c(F)cccc3F)cc2)CCN(C(=O)OC)CC1` [Compound 39, 2,6-Difluoro-N-[4-(1-methoxycarboxyl-5-ethoxycarbonyl-2,3,6,7-tetrahydro-1H-azepin-4-yl)-phenyl]-benzamide] was 380 nM.
Same read-out and setting: the value for `C=CC1=C(c2ccc(NC(=O)c3c(F)cccc3F)cc2)CCN(C(=O)OC)CC1` [Compound 40, 2,6-Difluoro-N-[4-(1-methoxycarbonyl-5-vinyl-2,3,6,7-tetrahydro-1H-azepin-4-yl)-phenyl]-benzamide] was 22.8 nM; that for `COC(=O)N1CCC(c2nccs2)=C(c2ccc(NC(=O)c3c(F)cccc3F)cc2)C1` [Compound 41, 2,6-Difluoro-N-[4-(1-methoxycarbonyl-4-thiazol-2-yl-1,2,5,6-tetrahydro-pyridin-3-yl)-phenyl]-benzamide] was 308 nM; that for `COC(=O)N1CCC(C(C)C)=C(c2ccc(NC(=O)c3c(F)cccc3F)cc2)C1` [Compound 42, 2,6-Difluoro-N-[4-(1-methoxycarbonyl-4-isopropyl-1,2,5,6-tetrahydro-pyridin-3-yl)-phenyl]-benzamide] was 11.9 nM.

Staying with this assay, now noted: Homo sapiens, PHA 2.5 μg/mL, 20 hours, IL-2 ELISA.
`CC1=C(c2ccc(NC(=O)c3c(F)cccc3F)cc2)CCN(C)C1` [Compound 15, N-(4-(1,5-Dimethyl-1,2,3,6-tetrahydropyridin-4-yl)phenyl)-2,6-difluorobenzamide] gave an IC50 of more than 1000 nM.
The same measure, in the same setting: the value for `CC1=C(c2ccc(NC(=O)c3c(F)cccc3F)cc2)CCNC1` [Compound 17, 2,6-Difluoro-N-(4-(5-methyl-1,2,3,6-tetrahydropyridin-4-yl)phenyl)benzamide] was more than 1000 nM; that for `CC1=C(c2ccc(NC(=O)c3c(F)cccc3F)cc2)CCN(Cc2ccccc2)C1` [Compound 19, N-(4-(1-benzyl-5-methyl-1,2,3,6-tetrahydropyridin-4-yl)phenyl)-2,6-difluorobenzamide] was 513 nM.

Values taken from patent US7816535B2, “Vinyl-phenyl derivatives for inflammation and immune-related uses” (Synta Pharmaceuticals Corp., priority 2006, dated 2010).
